We go through one substance from patent US20250223295A1, “SOLID STATE FORMS OF RUCAPARIB TOSYLATE” (ASSIA CHEMICAL INDUSTRIES LTD., priority 2022, published 2025).

“Also recorded” adds a separate entry of the source.

Assay type in all cases: physicochemical
The nature of series [1]: Exposure to solvent vapour (XRPD). Particulars: 25° C., 7 days. As for the experimental part:
(§1) A sample is powdered in a mortar and pestle and applied directly on a silicon plate holder. The X-ray powder diffraction pattern was measured with Philips X'Pert PRO X-ray powder diffractometer, equipped with Cu irradiation source=1.54184 Å (Ångström), X'Celerator (2.022° 2θ) detector. Scanning parameters: angle range: 3-40 deg., step size 0.0167, time per step 37 s, continuous scan.
Samples of Rucaparib tosylate form X (20-40 mg) were put in small vials and exposed to solvent vapours (2.5 ml each of ethanol, 96%, water and 2-propanol) at 25° C.

Series [2] in a line: Grinding experiments (XRPD). Particulars: for XRPD analysis results: 3 minutes. The protocol:
as §1
Samples of Rucaparib tosylate form X were subjected to strong grinding, and to solvent drop grinding in water, ethanol (96%) and 2-propanol. Grinding was carried out on the samples alone, or in the presence of ethanol, water and 2-propanol. In these experiments, about 20-30 mg of the sample were placed in a mortar and ground with a pestle for 3 minutes. The solvent, when used, as added to the crystalline material before grinding, in a volume of 10 microlitres.

A short description of series [3]: Stability to compression (XRPD). The following applies: for XRPD analysis results: after 1-5 minutes. As for the experimental part:
as §1
Samples of Rucaparib tosylate form X were subjected to pressures of 1000 kg and 2000 kg. XRPD analysis was performed on the samples after 1-5 minutes.

A further series is described as follows: Thermal stability (XRPD). The following applies: Heating 100° C., 30 minutes. The protocol:
as §1
A sample of Rucaparib tosylate form X was subjected to heating up to 100° C. for 30 minutes.

Series [4] in a line: Storage stability at different relative humidities (XRPD). Particulars: for XRPD analysis results: 7 days. As for the experimental part:
as §1
Samples of Rucaparib tosylate form X (about 200 mg each) were subjected to conditions of different relative humidities at ambient temperature. XRPD analysis was performed on the samples after 7 days.
A sample of Rucaparib tosylate form X was subjected to 100% relative humidity at 25° C.

Consider “Rucaparib Tosylate [Rucaparib tosylate form X]”, for which the XRPD analysis results in series [1] (2-propanol vapour) is listed as “Form X”; in series [1] (Ethanol, 96% vapour) it was “Form X”; in series [1] (Water vapour), “Form X”; in series [2] (Solvent-drop grinding (2-propanol), 10 microlitres), “Form X”; in series [2] (Solvent-drop grinding (ethanol), 10 microlitres), “Form X”; in series [2] (Solvent-drop grinding (water), 10 microlitres), “Form X”. Besides, the XRPD analysis results is listed as “Form X” in series [2] (Strong grinding); “No change” in series [3] (Pressure 1000 kg); “No change” in series [3] (Pressure 2000 kg); “Form X” in series [4] (20% relative humidity, ambient temperature, triplicate); “Form X” in series [4] (40% relative humidity, ambient temperature, triplicate); “Form X” in series [4] (60% relative humidity, ambient temperature, triplicate). For the same substance, the XRPD analysis results in series [4] (80% relative humidity, ambient temperature, triplicate) was “Form X”; in series [4] (100% relative humidity, ambient temperature, triplicate) it was “Form X”. The “XRPD analysis after the grinding experiment” value in series [2] (all grinding conditions: alone or with ethanol, water, 2-propanol) was “no change in the starting material”. For the same substance, in series [3] (pressures of 1000 kg and 2000 kg), the “Stability under high pressure conditions” value is reported as “stable”. For the same substance, the “Result (XRPD analysis)” value in “Thermal stability (XRPD)” is given as “no change in the starting material; also recorded: Form X”. Also, the “Stability after exposure to high and low relative humidity” value in series [4] (20-100% relative humidity, ambient temperature, at least 7 days) is “stable”. Moreover, the “XRPD analysis, polymorphic change” value in series [4] (100% relative humidity, 25° C., 30 days, triplicate) is reported as “no polymorphic change”.
